Values quoted from earlier work in US20060210645A1, “Pharmaceutically acceptable carrier for ophthalmic compositions” (priority 2005, published 2006).

Experiments:
[1] = relative to methyltestosterone
[2] = relative to methyltestosterone; remark: listed apart in the source

Question: What does the source list for `C[C@]12COC(=O)C[C@@H]1CC[C@@H]1[C@@H]2CC[C@@]2(C)[C@H]1CC[C@]2(C)O` [oxandrolone, 17 alpha-methyl-17β-hydroxy-2-oxa-5 alpha-androstan-3-one]?
Answer: anabolic activity, % of that of methyltestosterone [1]: 322%; androgenic activity, % of that of methyltestosterone [2]: 24%
